# Like-named read-outs stand apart in the source and are kept apart here.
# Tests used:
# NCI-H322M = test: cells; conditions: Homo sapiens, NCI-H322M
# NCI/ADR-RES = conditions: NCI/ADR-RES
# UACC-62 [1] = test: cells; conditions: Homo sapiens
# HOP-92 = test: cells; conditions: Homo sapiens
# HCC-2998 = test: cells; conditions: Homo sapiens
# U251 = test: cells; conditions: Homo sapiens
# RXF 393 = test: cells; conditions: Homo sapiens
# UACC-62 [2] = system: UACC-62
# HCT-15 = test: cells; conditions: Homo sapiens
# SNB-19 = test: cells; conditions: Homo sapiens
# OVCAR-4 = test: cells; conditions: Homo sapiens
# DU-145 = test: cells; conditions: Homo sapiens
# NCI-H460 [3] = system: NCI-H460
# CAKI-1 = test: cells; conditions: Homo sapiens
# NCI-H460 [4] = test: cells; conditions: Homo sapiens
# IGROV1 = test: cells; conditions: Homo sapiens
# SK-MEL-2 = test: cells; conditions: Homo sapiens
# TK-10 = test: cells; conditions: Homo sapiens
structure (smiles),measurement,setting,value
"CNC(=O)NC[C@H]1O[C@@H](n2cnc3c(NC(=O)Nc4ccccc4)ncnc32)[C@H](O[Si](C)(C)C(C)(C)C)[C@@H]1CC(=O)N(C)OC [Compound 13, 2′-O-(tert-Butyldimethylsilyl)-3′,5′-dideoxy-3′-[(N-methoxy-N-methylcarboxamido)methyl]-5′-[(N-methylcarbamoyl)amino]-N^6-(N-phenylcarbamoyl)adenosine]",GI50,NCI-H322M,> 100 µM
same,CC50,NCI-H322M; read-out: LC50,> 100 µM
same,TGI,NCI/ADR-RES,>1.00E−4 Molar
same,Percent Growth,NCI/ADR-RES; Log10 Concentration −4.0,55%
same,Percent Growth,NCI/ADR-RES; Log10 Concentration −5.0,76%
same,Percent Growth,NCI/ADR-RES; Log10 Concentration −6.0,105%
same,Percent Growth,NCI/ADR-RES; Log10 Concentration −7.0,109%
same,Percent Growth,NCI/ADR-RES; Log10 Concentration −8.0,109%
same,TGI,OVCAR-3,>1.00E−4 Molar
same,Percent Growth,OVCAR-3; Log10 Concentration −4.0,6%
same,Percent Growth,OVCAR-3; Log10 Concentration −5.0,41%
same,Percent Growth,OVCAR-3; Log10 Concentration −6.0,100%
same,Percent Growth,OVCAR-3; Log10 Concentration −7.0,107%
same,Percent Growth,OVCAR-3; Log10 Concentration −8.0,95%
same,TGI,SNB-75,>1.00E−4 Molar
same,Percent Growth,SNB-75; Log10 Concentration −4.0,12%
same,Percent Growth,SNB-75; Log10 Concentration −5.0,54%
same,Percent Growth,SNB-75; Log10 Concentration −6.0,84%
same,Percent Growth,SNB-75; Log10 Concentration −7.0,95%
same,Percent Growth,SNB-75; Log10 Concentration −8.0,94%
same,GI50,UACC-62 [1]; UACC-62,41.9 µM
same,CC50,"UACC-62 [1]; UACC-62, read-out: LC50",> 100 µM
same,TGI,UACC-257,>1.00E−4 Molar
same,Percent Growth,UACC-257; Log10 Concentration −4.0,22%
same,Percent Growth,UACC-257; Log10 Concentration −5.0,65%
same,Percent Growth,UACC-257; Log10 Concentration −6.0,102%
same,Percent Growth,UACC-257; Log10 Concentration −7.0,103%
same,Percent Growth,UACC-257; Log10 Concentration −8.0,95%
same,GI50,HOP-92; HOP-92,2.71 µM
same,CC50,"HOP-92; HOP-92, read-out: LC50",> 100 µM
same,GI50,HCC-2998; HCC 2998,30.6 µM
same,CC50,"HCC-2998; HCC 2998, read-out: LC50",> 100 µM
same,TGI,SK-OV-3,>1.00E−4 Molar
same,Percent Growth,SK-OV-3; Log10 Concentration −4.0,38%
same,Percent Growth,SK-OV-3; Log10 Concentration −5.0,82%
same,Percent Growth,SK-OV-3; Log10 Concentration −6.0,95%
same,Percent Growth,SK-OV-3; Log10 Concentration −7.0,97%
same,Percent Growth,SK-OV-3; Log10 Concentration −8.0,96%
same,GI50,U251; U-251,5.66 µM
same,CC50,"U251; U-251, read-out: LC50",> 100 µM
same,GI50,RXF 393; RXF 393,9.74 µM
same,CC50,"RXF 393; RXF 393, read-out: LC50",> 100 µM
same,TGI,MDA-MB-231/ATCC,>1.00E−4 Molar
same,Percent Growth,MDA-MB-231/ATCC; Log10 Concentration −4.0,5%
same,Percent Growth,MDA-MB-231/ATCC; Log10 Concentration −5.0,55%
same,Percent Growth,MDA-MB-231/ATCC; Log10 Concentration −6.0,94%
same,Percent Growth,MDA-MB-231/ATCC; Log10 Concentration −7.0,104%
same,Percent Growth,MDA-MB-231/ATCC; Log10 Concentration −8.0,97%
same,TGI,UACC-62 [2],>1.00E−4 Molar
same,Percent Growth,UACC-62 [2]; Log10 Concentration −4.0,39%
same,Percent Growth,UACC-62 [2]; Log10 Concentration −5.0,69%
same,Percent Growth,UACC-62 [2]; Log10 Concentration −6.0,96%
same,Percent Growth,UACC-62 [2]; Log10 Concentration −7.0,107%
same,Percent Growth,UACC-62 [2]; Log10 Concentration −8.0,102%
same,GI50,HCT-15; HCT-15,6.47 µM
same,CC50,"HCT-15; HCT-15, read-out: LC50",> 100 µM
same,GI50,SNB-19; SNB-19,> 100 µM
same,CC50,"SNB-19; SNB-19, read-out: LC50",> 100 µM
same,GI50,OVCAR-4; OVCAR-4,53 µM
same,CC50,"OVCAR-4; OVCAR-4, read-out: LC50",> 100 µM
same,GI50,DU-145; DU-145,16.6 µM
same,CC50,"DU-145; DU-145, read-out: LC50",> 100 µM
same,TGI,NCI-H460 [3],>1.00E−4 Molar
same,Percent Growth,NCI-H460 [3]; Log10 Concentration −4.0,25%
same,Percent Growth,NCI-H460 [3]; Log10 Concentration −5.0,44%
same,Percent Growth,NCI-H460 [3]; Log10 Concentration −6.0,90%
same,Percent Growth,NCI-H460 [3]; Log10 Concentration −7.0,93%
same,Percent Growth,NCI-H460 [3]; Log10 Concentration −8.0,96%
same,TGI,SN12C,>1.00E−4 Molar
same,Percent Growth,SN12C; Log10 Concentration −4.0,49%
same,Percent Growth,SN12C; Log10 Concentration −5.0,66%
same,Percent Growth,SN12C; Log10 Concentration −6.0,96%
same,Percent Growth,SN12C; Log10 Concentration −7.0,104%
same,Percent Growth,SN12C; Log10 Concentration −8.0,106%
same,TGI,M14,>1.00E−4 Molar
same,Percent Growth,M14; Log10 Concentration −4.0,18%
same,Percent Growth,M14; Log10 Concentration −5.0,57%
same,Percent Growth,M14; Log10 Concentration −6.0,91%
same,Percent Growth,M14; Log10 Concentration −7.0,98%
same,Percent Growth,M14; Log10 Concentration −8.0,98%
same,GI50,CAKI-1; CAKI-1,53.8 µM
same,CC50,"CAKI-1; CAKI-1, read-out: LC50",> 100 µM
same,GI50,NCI-H460 [4]; NCI-H460,7.49 µM
same,CC50,"NCI-H460 [4]; NCI-H460, read-out: LC50",> 100 µM
same,GI50,IGROV1; IGROV-1,3.72 µM
same,CC50,"IGROV1; IGROV-1, read-out: LC50",> 100 µM
same,TGI,A549/ATCC,>1.00E−4 Molar
same,Percent Growth,A549/ATCC; Log10 Concentration −4.0,27%
same,Percent Growth,A549/ATCC; Log10 Concentration −5.0,49%
same,Percent Growth,A549/ATCC; Log10 Concentration −6.0,97%
same,Percent Growth,A549/ATCC; Log10 Concentration −7.0,100%
same,Percent Growth,A549/ATCC; Log10 Concentration −8.0,97%
same,GI50,SK-MEL-2; SK-MEL-2,14.9 µM
same,CC50,"SK-MEL-2; SK-MEL-2, read-out: LC50",> 100 µM
same,GI50,TK-10; TK-10,20.5 µM
same,CC50,"TK-10; TK-10, read-out: LC50",> 100 µM
same,TGI,SF-539,>1.00E−4 Molar
same,Percent Growth,SF-539; Log10 Concentration −4.0,23%
same,Percent Growth,SF-539; Log10 Concentration −5.0,65%
same,Percent Growth,SF-539; Log10 Concentration −6.0,89%
same,Percent Growth,SF-539; Log10 Concentration −7.0,94%
same,Percent Growth,SF-539; Log10 Concentration −8.0,96%

# From patent US20100152434A1, “Protein Kinase-binding Nucleosides and Associated Methods” (priority 2007, published 2010)
